From patent US11691972B2, “Compounds for targeted degradation of BRD9” (C4 Therapeutics, Inc., priority 2020, dated 2023) come the findings set out here.

SMILES strings stand for the structures.

The assay addresses BRD9 (Canis lupus familiaris, UniProt A0A8I3PU24). Kind of assay: BRD9 degradation in dog cells (24 h). It counts as cell-based.

Chain of BRD9 (A0A8I3PU24 1-600): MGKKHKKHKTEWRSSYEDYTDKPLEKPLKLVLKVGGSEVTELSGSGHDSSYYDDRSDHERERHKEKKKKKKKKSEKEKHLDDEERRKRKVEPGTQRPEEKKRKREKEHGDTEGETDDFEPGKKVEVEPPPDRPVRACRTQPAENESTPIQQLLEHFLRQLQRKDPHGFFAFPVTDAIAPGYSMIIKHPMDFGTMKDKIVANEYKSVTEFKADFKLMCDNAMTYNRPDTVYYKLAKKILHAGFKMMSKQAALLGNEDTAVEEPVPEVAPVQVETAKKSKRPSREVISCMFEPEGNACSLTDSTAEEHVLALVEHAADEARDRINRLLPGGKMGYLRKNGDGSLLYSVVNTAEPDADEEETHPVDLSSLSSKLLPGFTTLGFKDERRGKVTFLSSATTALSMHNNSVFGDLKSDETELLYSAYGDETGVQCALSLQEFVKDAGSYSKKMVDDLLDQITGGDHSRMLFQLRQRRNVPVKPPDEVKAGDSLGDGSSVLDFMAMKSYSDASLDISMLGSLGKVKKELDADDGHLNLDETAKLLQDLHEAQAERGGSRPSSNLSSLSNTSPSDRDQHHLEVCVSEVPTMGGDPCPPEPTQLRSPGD

Turning to `COc1cc(-c2cn(C)c(=O)c(C)c2C)cc(OC)c1CN1CCC(N2CCN(c3ccc(NC4CCC(=O)NC4=O)cc3F)CC2)C(F)(F)C1` (centres unmarked) [Compound 172, 3-[4-[4-[1-[[2,6-dimethoxy-4-(1,4,5-trimethyl-6-oxo-3-pyridyl)phenyl]methyl]-3,3-difluoro-4-piperidyl]piperazin-1-yl]-3-fluoro-anilino]piperidine-2,6-dione], the “BRD9 degradation dog cells (24 h), percent” value is reported as 36.4%. Where the note is “read-out: BRD9 degradation dog cells (24 h), concentration”, the DC50 came out at 99 nM.
